ChEMBL document CHEMBL5653615 (J Biol Chem, 2013)

What was measured:
[1] = molecular target: Serine/threonine-protein kinase Chk2 (Homo sapiens) (UniProt O96017); assay: Inhibition of human CHK2 at 500 nM by HotSpot assay relative to control
[2] = molecular target: Fibroblast growth factor receptor 3 (Homo sapiens) (UniProt P22607); assay: Inhibition of human FGFR3 at 500 nM by HotSpot assay relative to control
[3] = molecular target: Tyrosine-protein kinase Fyn (Homo sapiens) (UniProt P06241); assay: Inhibition of human FYN at 500 nM by HotSpot assay relative to control
Sequence of Tyrosine-protein kinase Fyn (Homo sapiens) (P06241 2-537 limits assumed): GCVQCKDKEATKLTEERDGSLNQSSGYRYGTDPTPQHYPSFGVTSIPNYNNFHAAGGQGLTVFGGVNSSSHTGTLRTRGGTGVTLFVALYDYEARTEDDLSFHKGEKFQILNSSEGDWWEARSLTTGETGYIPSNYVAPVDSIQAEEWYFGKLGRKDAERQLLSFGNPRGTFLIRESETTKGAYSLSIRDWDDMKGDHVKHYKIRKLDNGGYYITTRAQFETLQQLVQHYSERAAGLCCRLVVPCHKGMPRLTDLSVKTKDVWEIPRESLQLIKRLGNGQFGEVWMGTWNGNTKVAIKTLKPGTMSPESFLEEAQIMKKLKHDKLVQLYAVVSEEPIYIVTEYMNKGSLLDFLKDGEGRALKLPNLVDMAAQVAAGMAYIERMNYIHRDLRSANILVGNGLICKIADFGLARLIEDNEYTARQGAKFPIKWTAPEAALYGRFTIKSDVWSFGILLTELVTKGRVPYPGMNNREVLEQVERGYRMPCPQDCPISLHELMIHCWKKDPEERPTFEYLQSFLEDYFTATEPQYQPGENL

[4] = molecular target: T1, Interleukin-1 receptor-associated kinase 4 (Homo sapiens) (UniProt Q9NWZ3); assay: Inhibition of human IRAK4 at 500 nM by HotSpot assay relative to control
T1 sequence (whole entry): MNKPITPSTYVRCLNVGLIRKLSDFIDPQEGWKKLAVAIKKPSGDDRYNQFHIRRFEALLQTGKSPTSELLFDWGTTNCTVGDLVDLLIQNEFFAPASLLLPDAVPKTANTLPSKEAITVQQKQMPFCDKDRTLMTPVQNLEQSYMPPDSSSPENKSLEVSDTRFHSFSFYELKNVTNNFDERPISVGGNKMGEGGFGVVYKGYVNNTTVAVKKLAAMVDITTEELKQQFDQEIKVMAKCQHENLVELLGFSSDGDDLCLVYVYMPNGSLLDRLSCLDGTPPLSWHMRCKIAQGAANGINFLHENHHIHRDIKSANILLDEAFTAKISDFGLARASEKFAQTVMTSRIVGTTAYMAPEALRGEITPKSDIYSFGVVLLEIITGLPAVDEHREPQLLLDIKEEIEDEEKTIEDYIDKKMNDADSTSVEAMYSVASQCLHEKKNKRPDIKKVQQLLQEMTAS

[5] = molecular target: T2, Serine/threonine-protein kinase Nek9 (Homo sapiens) (UniProt Q8TD19); assay: Inhibition of human NEK9 at 500 nM by HotSpot assay relative to control
T2 sequence (whole entry): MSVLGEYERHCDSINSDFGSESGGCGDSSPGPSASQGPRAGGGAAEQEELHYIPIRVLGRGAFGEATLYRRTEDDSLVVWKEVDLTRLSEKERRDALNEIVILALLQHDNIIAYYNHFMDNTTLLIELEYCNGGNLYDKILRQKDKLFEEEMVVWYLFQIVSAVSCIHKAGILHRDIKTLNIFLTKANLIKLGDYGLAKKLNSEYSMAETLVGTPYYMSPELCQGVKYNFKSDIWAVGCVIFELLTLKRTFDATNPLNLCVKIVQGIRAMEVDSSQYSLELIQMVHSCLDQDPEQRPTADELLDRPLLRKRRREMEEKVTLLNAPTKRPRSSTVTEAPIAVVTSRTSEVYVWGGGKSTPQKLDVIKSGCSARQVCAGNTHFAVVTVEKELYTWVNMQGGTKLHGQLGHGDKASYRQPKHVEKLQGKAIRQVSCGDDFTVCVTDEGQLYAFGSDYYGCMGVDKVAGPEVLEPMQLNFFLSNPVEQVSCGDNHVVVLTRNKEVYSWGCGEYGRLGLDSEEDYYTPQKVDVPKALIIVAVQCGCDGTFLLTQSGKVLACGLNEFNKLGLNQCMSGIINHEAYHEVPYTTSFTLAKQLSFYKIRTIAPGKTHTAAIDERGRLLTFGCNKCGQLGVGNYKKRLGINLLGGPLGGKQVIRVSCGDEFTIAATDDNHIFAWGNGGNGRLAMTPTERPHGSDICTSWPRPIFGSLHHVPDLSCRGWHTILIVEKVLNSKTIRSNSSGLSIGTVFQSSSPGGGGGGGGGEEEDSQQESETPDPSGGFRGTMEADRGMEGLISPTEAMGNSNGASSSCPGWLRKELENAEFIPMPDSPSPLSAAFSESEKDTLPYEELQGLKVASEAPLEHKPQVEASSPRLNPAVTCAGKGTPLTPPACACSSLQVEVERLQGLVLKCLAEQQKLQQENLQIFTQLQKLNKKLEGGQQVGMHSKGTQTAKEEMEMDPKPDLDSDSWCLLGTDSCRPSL

[6] = molecular target: T3, Lymphokine-activated killer T-cell-originated protein kinase (Homo sapiens) (UniProt Q96KB5); assay: Inhibition of human TOPK at 500 nM by HotSpot assay relative to control
T3 sequence (whole entry): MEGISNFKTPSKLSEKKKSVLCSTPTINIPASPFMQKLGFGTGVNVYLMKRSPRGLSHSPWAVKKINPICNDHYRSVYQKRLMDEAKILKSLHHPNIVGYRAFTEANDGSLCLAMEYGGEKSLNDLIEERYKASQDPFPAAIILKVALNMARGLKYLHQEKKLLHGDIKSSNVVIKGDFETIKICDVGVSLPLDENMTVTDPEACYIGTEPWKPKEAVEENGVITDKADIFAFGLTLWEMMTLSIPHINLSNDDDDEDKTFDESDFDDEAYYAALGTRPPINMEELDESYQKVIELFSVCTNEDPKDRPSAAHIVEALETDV

[7] = molecular target: cAMP-dependent protein kinase (PKA) (Homo sapiens) (UniProt P22694+P17612+P22612); assay: Inhibition of human PKA at 500 nM by HotSpot assay relative to control; type: protein assay
[8] = molecular target: T4, Protein kinase C epsilon type (Homo sapiens) (UniProt Q02156); assay: Inhibition of human PKCepsilon at 500 nM by HotSpot assay relative to control
T4 sequence (whole entry): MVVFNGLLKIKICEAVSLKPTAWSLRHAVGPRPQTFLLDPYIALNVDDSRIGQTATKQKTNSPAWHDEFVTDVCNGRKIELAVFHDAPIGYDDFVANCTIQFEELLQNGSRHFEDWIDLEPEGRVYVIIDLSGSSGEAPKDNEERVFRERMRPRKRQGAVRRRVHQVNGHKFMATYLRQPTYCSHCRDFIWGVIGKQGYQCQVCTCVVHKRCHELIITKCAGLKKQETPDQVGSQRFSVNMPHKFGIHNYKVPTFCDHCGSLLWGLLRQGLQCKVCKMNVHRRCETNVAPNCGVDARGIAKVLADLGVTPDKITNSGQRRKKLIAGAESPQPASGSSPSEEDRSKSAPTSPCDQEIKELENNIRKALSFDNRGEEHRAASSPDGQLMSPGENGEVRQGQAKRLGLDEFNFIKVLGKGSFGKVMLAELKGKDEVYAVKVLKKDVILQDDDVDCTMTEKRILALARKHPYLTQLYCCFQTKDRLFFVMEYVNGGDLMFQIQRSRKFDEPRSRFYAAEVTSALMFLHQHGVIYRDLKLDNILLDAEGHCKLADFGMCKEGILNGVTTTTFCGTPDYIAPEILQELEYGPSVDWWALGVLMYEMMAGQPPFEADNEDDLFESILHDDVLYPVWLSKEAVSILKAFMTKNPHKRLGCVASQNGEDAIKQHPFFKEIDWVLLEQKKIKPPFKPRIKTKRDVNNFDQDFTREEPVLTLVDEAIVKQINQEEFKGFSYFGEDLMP

Sequence of Serine/threonine-protein kinase Chk2 (Homo sapiens) (O96017 whole entry): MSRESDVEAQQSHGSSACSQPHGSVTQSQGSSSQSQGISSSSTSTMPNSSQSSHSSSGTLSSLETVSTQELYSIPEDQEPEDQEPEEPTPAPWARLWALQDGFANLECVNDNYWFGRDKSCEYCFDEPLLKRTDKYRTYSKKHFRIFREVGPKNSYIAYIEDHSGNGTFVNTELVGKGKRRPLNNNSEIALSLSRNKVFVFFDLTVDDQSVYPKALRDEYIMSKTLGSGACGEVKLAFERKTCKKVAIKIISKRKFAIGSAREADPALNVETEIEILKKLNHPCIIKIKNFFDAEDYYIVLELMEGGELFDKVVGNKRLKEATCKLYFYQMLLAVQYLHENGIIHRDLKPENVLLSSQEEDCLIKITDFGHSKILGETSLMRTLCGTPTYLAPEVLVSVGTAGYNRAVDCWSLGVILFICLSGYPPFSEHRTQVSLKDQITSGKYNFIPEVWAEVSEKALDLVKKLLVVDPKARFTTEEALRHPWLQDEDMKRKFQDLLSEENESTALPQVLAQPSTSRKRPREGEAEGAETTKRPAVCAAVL
Sequence of Fibroblast growth factor receptor 3 (Homo sapiens) (P22607 23-806 limits assumed): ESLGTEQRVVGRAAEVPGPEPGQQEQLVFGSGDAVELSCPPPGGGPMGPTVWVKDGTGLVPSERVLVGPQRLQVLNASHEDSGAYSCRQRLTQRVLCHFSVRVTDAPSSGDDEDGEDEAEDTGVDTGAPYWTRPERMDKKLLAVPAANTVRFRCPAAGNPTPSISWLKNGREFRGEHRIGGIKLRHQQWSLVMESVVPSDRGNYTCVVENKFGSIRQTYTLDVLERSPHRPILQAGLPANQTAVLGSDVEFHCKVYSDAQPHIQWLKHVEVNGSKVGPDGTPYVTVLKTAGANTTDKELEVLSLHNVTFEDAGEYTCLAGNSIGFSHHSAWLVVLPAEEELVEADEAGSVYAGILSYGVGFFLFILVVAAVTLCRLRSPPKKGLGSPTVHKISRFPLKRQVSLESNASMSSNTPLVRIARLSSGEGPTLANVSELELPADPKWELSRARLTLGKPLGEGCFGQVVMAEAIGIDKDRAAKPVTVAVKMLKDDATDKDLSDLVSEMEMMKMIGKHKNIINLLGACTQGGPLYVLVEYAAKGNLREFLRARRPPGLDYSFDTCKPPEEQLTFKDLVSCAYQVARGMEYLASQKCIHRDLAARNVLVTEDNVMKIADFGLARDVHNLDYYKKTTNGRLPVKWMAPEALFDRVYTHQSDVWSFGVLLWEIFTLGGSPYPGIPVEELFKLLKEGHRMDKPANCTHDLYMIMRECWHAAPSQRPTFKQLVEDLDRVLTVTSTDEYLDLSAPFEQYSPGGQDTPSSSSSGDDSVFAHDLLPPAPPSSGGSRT

| Structure (SMILES) | inhibition [1] [%] | inhibition [2] [%] | inhibition [3] [%] | inhibition [4] [%] | inhibition [5] [%] | inhibition [6] [%] | inhibition [7] [%] | inhibition [8] [%] |
| --- | --- | --- | --- | --- | --- | --- | --- | --- |
| Nc1n[nH]c2nnc(-c3c(-c4ccccc4)nn4ccccc34)cc12 | 2.97 | -1.72 | 4.98 | -5.42 | 6.65 | 4.99 | 2.35 | 27.3 |
| Oc1n[nH]c2nnc(-c3c(-c4ccccc4)nn4ccccc34)cc12 | 1.86 | -3.4 | -0.67 | -3.11 | 10.2 | -8.9 | -5.26 | 3.42 |
